This note sets out measurements from article PMC8349882 (Molecular cell, 2021).

The assay addresses GLR3.4-S1S2 (Arabidopsis thaliana, UniProt Q8GXJ4, DEL602-708). Put plainly: crystal structure. It is filed as binding. Particulars: endogenous ligand from expression, none added.

Sequence of GLR3.4-S1S2 (Q8GXJ4 492-601, stated change not applied): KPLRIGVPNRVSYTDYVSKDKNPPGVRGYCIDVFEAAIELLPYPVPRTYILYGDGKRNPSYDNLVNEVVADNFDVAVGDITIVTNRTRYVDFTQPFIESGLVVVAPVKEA
Sequence of GLR3.4-S1S2 (Q8GXJ4 709-842, stated change not applied): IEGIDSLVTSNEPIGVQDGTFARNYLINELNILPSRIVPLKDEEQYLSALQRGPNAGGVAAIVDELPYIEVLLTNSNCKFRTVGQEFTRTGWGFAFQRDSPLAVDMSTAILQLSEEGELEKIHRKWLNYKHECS

With `N[C@@H](CO)C(=O)O` [serine], the crystal structure result is listed as “The serine-bound LBD structure was solved without adding the ligand to the protein”.
